For one data set, the target named is CDK2/CycE (Homo sapiens (Human), UniProt P24941). The data set can be described thus: CDK2/CycE kinase assay (TR-FRET). To be noted: Method 2. In kind it is biochemical. The method, boiled down:
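TR-FRET measurement of inhibition of phosphorylation of a biotinylated peptide substrate. Enzyme complex consisted of human CDK2 and CycE, each as a GST fusion made in Sf9 cells and purified over glutathione-Sepharose.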
For orientation: In TR-FRET formats the signal depends on donor and acceptor labels being close together.

A short description of data set [1]: Equilibrium shake flask solubility assay. The conditions noted are these: pH 6.5, equilibrium shake flask method; for solubility thermodynamic at 24 h: phosphate buffer, pH 6.5, aqueous buffer, thermodynamic from solid, water. It counts as physicochemical. As for the experimental part:
4. Equilibrium Shake Flask Solubility Assay:
The thermodynamic solubility of compounds in water was determined by an equilibrium shake flask method (see for example: E. H. Kerns, L. Di: Drug-like Properties: Concepts, Structure Design and Methods, 276-286, Burlington, Mass., Academic Press, 2008). A saturated solution of the drug was prepared and the solution was mixed for 24 h to ensure that equilibrium was reached. The solution was centrifuged to remove the insoluble fraction and the concentration of the compound in solution was determined using a standard calibration curve.
To prepare the sample, 2 mg solid compound was weighed in a 4 mL glass vial. 1 mL phosphate buffer pH 6.5 was added. The suspension was stirred for 24 hrs at room temperature. The solution was centrifuged afterwards. To prepare the sample for the standard calibration, 2 mg solid sample was dissolved in 30 mL acetonitrile. After sonification the solution was diluted with water to 50 mL. Sample and standards were quantified by HPLC with UV-detection. For each sample two injection volumes (5 and 50 μl) in triplicates were made. Three injection volumes (5 μl, 10 μl and 20 μl) were made for the standard.
Chromatographic Conditions:
The areas of sample- and standard injections as well as the calculation of the solubility value (in mg/l) were determined by using HPLC software (Waters Empower 2 FR).

Data set [2] deals with NCI-H460, human non-small cell lung carcinoma cells. The data set can be described thus: Proliferation assay (crystal violet), NCI-H460. It counts as cell-based. To be noted: Method 3, read-out: Inhibition of NCI-H460 cell proliferation, IC50. The method, boiled down: (§1)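 Cells were seeded at 3000/well (NCI-H460, HeLa), 5000/well (HeLa-MaTu-ADR) or 1500/well (Caco-2) in medium with 10% FCS. After 24 h, compounds ([…], 0.5% DMSO) were added for 4 days. Crystal violet absorbance at 595 nm was normalized to a zero-point plate and untreated cells; IC50 came from a 4-parameter fit.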

Data set [3] concerns B16F10 mouse melanoma cells. Put plainly: Proliferation assay (crystal violet), B16F10. In kind it is cell-based. To be noted: Method 3, read-out: Inhibition of B16F10 cell proliferation, IC50. The method, boiled down:
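Proliferation was read out by crystal violet staining. Cells were fixed for 15 minutes at room temperature with 20 μL of 11% glutaric aldehyde, washed three times with water, dried, and stained with 100 μL of 0.1% crystal violet (pH 3.0). After washing and drying, the dye was dissolved in 100 μL of 10% acetic acid and absorbance measured at 595 nm. Values were normalized to the zero-point plate (0%) and untreated cells (100%), and IC50 was obtained by a 4 parameter fit.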

For data set [4], the system named is Caco-2 human colorectal carcinoma. Put plainly: Proliferation assay (crystal violet), Caco-2. It counts as cell-based. The conditions noted are these: Method 3, read-out: Inhibition of Caco-2 cell proliferation, IC50. In a few lines:
as §1

Data set [5] deals with HeLa-MaTu-ADR, multidrug-resistant human cervical carcinoma cells. Put plainly: Proliferation assay (crystal violet), HeLa-MaTu-ADR. It counts as cell-based. To be noted: Method 3, read-out: Inhibition of HeLa/MaTu/ADR cell proliferation, IC50. The method, boiled down: as §1
The next data set addresses CDK9/CycT1 (Homo sapiens (Human), UniProt P50750). The data set can be described thus: CDK9/CycT1 kinase assay (TR-FRET). In kind it is biochemical. To be noted: Method 1. The method, boiled down:
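TR-FRET read-out of kinase inhibition, with a biotin-Ttds-tagged peptide as substrate. Enzyme: human CDK9 and CycT1, full-length with His tags, produced in insect cells and purified on Ni-NTA.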

Data set [6] relates to HeLa human cervical tumour cells. Put plainly: Proliferation assay (crystal violet), HeLa. To be noted: Method 3, read-out: Inhibition of HeLa cell proliferation, IC50. In kind it is cell-based. In a few lines:
as §1

Data set [7] concerns DU145, hormone-independent human prostate carcinoma cells. Put plainly: Proliferation assay (crystal violet), DU145. The conditions noted are these: Method 3, read-out: Inhibition of DU145 cell proliferation, IC50. In kind it is cell-based. In a few lines:
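Proliferation of DU145 cells was measured with crystal violet. Cells were fixed with 20 μL 11% glutaric aldehyde for 15 minutes, washed, dried, stained with 100 μL 0.1% crystal violet (pH 3.0), washed again, and the dye was dissolved in 10% acetic acid. Absorbance at 595 nm was normalized to the zero-point plate and untreated cells, and IC50 came from a 4 parameter fit.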

Where [8] appears, read: Homo sapiens, NCI-H460, NCI-H460 cells.
Where [9] appears, read: Mus musculus, B16-F10, B16F10 cells.
[10] abbreviates: Homo sapiens, Caco-2, Caco-2 cells.
Setting [11] is: Homo sapiens, DU-145, DU145 cells.

pIC50: −log10 of the molar value. In brackets after ≈: the same amount, converted by molar mass. Read-outs that look alike come from different tables or passages of the source.

CDK9/CycT1, sequence (P50750 whole entry): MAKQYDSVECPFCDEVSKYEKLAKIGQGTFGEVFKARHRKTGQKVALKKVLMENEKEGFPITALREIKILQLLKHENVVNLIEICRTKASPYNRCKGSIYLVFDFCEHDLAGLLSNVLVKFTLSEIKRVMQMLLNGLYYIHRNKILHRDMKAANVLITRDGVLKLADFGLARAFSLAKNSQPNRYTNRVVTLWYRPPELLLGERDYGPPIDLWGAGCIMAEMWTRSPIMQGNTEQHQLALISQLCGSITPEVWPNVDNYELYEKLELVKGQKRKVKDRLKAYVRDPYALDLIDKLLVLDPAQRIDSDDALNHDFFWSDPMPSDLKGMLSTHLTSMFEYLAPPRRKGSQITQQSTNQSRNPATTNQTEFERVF
CDK9/CycT1, sequence (O60563 whole entry partner): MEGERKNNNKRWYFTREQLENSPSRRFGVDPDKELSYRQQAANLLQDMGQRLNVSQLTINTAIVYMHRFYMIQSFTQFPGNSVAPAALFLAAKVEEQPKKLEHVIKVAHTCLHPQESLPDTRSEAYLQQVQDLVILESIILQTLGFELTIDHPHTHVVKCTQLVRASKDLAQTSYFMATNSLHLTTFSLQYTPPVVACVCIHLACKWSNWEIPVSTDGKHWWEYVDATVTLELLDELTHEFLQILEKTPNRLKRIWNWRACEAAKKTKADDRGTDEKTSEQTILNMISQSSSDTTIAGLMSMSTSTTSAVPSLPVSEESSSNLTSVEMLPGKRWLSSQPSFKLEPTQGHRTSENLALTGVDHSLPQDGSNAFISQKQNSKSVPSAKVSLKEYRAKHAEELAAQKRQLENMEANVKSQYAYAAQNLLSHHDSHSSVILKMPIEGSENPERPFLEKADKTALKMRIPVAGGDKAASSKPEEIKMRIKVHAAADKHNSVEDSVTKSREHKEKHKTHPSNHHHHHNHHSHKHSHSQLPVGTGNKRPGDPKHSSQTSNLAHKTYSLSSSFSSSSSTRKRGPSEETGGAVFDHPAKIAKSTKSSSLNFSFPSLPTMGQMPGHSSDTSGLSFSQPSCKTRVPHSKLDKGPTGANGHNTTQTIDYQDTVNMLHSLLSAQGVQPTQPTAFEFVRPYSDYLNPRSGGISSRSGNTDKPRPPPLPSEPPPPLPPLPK

In turn, `CS(=N)(=O)Cc1cccc(Nc2ncnc(-c3cccc4c3OCCC4)n2)c1` (single isomer, unassigned) [Example 32, 4-(3,4-Dihydro-2H-chromen-8-yl)-N-{3-[(S-methylsulfonimidoyl)methyl]phenyl}-1,3,5-triazin-2-amine] showed a pIC50 at CDK2/CycE of 5.80. Further, the “Thermodynamic solubility in water at pH 6.5” value in data set [1] was 1000 mg/l.

The thermodynamic solubility is the concentration in solution at equilibrium with solid. On CDK2/CycE, `CS(=N)(=O)Cc1cccc(Nc2ncnc(-c3cccc4c3OCCC4)n2)c1` (single isomer, unassigned) [Example 31, 4-(3,4-Dihydro-2H-chromen-8-yl)-N-{3-[(S-methylsulfonimidoyl)methyl]phenyl}-1,3,5-triazin-2-amine] showed a pIC50 of 6.17. The compound further yielded a thermodynamic solubility at 24 h in data set [1] of 1000 µg/mL (≈ 2530 µM).

`COc1cc(F)ccc1-c1ncnc(Nc2cc(F)cc(CS(C)(=N)=O)c2)n1` (single isomer, unassigned) [Example 54, 4-(4-Fluoro-2-methoxyphenyl)-N-{3-fluoro-5-[(S-methylsulfonimidoyl)methyl]phenyl}-1,3,5-triazin-2-amine] had a pIC50 at CDK2/CycE of 6.07. The solubility (thermodynamic) at 24 h in data set [1] turned out to be 120 µg/mL (≈ 296 µM).

Consider `COc1cc(F)ccc1-c1ncnc(Nc2cccc(CS(C)(=O)=NC#N)c2)n1` (racemic) [Example 48, (rac)-[(3-{[4-(4-fluoro-2-methoxyphenyl)-1,3,5-triazin-2-yl]amino}benzyl)(methyl)oxido-λ^6-sulfanylidene]cyanamide], for which the pIC50 in [2] (setting [8]) is 6.39; in [3] (setting [9]) it was 6.49; against CDK2/CycE, 6.20; in data set [4] (setting [10]) it was 6.38; in [5] (Homo sapiens, HeLa), 6.40; at CDK9/CycT1 it was 7.89. In addition, the pIC50 in [6] (Homo sapiens, HeLa) is 6.48; in data set [7] (setting [11]), 6.55.

For the compound `C#CCOc1cc(F)ccc1-c1ncnc(Nc2cccc(CS(C)(=N)=O)c2)n1` (single isomer, unassigned) [Example 79, 4-[4-Fluoro-2-(prop-2-yn-1-yloxy)phenyl]-N-{3-[(S-methylsulfonimidoyl)methyl]phenyl}-1,3,5-triazin-2-amine], the pIC50 is 6.38 in [2] (NCI-H460 cells); 6.43 in [3] (B16F10 cells); 6.36 against CDK2/CycE; 6.41 in data set [4] (Caco-2 cells); 6.46 in data set [5]; 8.30 on CDK9/CycT1. Also, the figures for the pIC50 in data set [6] and in data set [7] (DU145 cells) were 6.36 and 6.42, respectively.

In the case of `C#CCOc1cc(F)ccc1-c1ncnc(Nc2cccc(CS(C)(=N)=O)c2)n1` (single isomer, unassigned) [Example 78, 4-[4-Fluoro-2-(prop-2-yn-1-yloxy)phenyl]-N-{3-[(S-methylsulfonimidoyl)methyl]phenyl}-1,3,5-triazin-2-amine], the pIC50 is 6.41 in data set [2] (setting [8]); 6.30 in [3] (setting [9]); 6.24 at CDK2/CycE; 6.12 in data set [4] (setting [10]); 6.59 in data set [5] (Homo sapiens, HeLa); 8.05 against CDK9/CycT1. Moreover, the pIC50 is 6.19 in data set [6] (Homo sapiens, HeLa) and 6.43 in [7] (setting [11]).

For the compound `CS(=N)(=O)Cc1cccc(Nc2ncnc(-c3ccccc3OCc3ccc(F)cc3)n2)c1` (racemic) [Example 43, (rac)-4-{2-[(4-Fluorobenzyl)oxy]phenyl}-N-{3-[(S-methylsulfonimidoyl)methyl]phenyl}-1,3,5-triazin-2-amine], the pIC50 in data set [2] (setting [8]) was 6.28; in data set [3] (setting [9]), 6.10; against CDK2/CycE it was 5.72; in data set [4] (setting [10]) it was 5.96; in [5] (Homo sapiens, HeLa), 5.96; against CDK9/CycT1, 8.05. Besides, the pIC50 is 6.23 in data set [6] (Homo sapiens, HeLa) and 6.10 in data set [7] (setting [11]).

On to `COc1cc(F)ccc1-c1ncnc(Nc2cc(F)cc(CS(C)(=O)=NC#N)c2)n1` (single isomer, unassigned) [Example 71, [(3-Fluoro-5-{[4-(4-fluoro-2-methoxyphenyl)-1,3,5-triazin-2-yl]amino}benzyl)(methyl)oxido-λ^6-sulfanylidene]cyanamide], for which the pIC50 in data set [2] (setting [8]) was 6.80; in data set [3] (setting [9]) it was 6.96; against CDK2/CycE it was 6.64; in data set [4] (setting [10]) it was 6.89; in data set [5] (Homo sapiens, HeLa), 6.92; against CDK9/CycT1, 8.22. The pIC50 was 7.00 in [6] (Homo sapiens, HeLa) and 6.92 in data set [7] (setting [11]).

Regarding `CC#CCOc1cc(F)ccc1-c1ncnc(Nc2cccc(CS(C)(=N)=O)c2)n1` (single isomer, unassigned) [Example 74, 4-[2-(But-2-yn-1-yloxy)-4-fluorophenyl]-N-{3-[(S-methylsulfonimidoyl)methyl]phenyl}-1,3,5-triazin-2-amine], the pIC50 in data set [2] (setting [8]) was 6.48; in data set [3] (setting [9]) it was 6.47; on CDK2/CycE, 6.23; in data set [4] (setting [10]), 6.41; in data set [5] (Homo sapiens, HeLa), 6.47; at CDK9/CycT1, 8.52. For the same compound, the pIC50 in [6] (Homo sapiens, HeLa) is 6.51; in data set [7] (DU145 cells), 6.44.

With `CS(=N)(=O)Cc1cccc(Nc2ncnc(-c3ccc(F)cc3OCc3ccc(F)cc3)n2)c1` (racemic) [Example 56, (rac)-4-{4-Fluoro-2-[(4-fluorobenzyl)oxy]phenyl}-N-{3-[(S-methylsulfonimidoyl)methyl]phenyl}-1,3,5-triazin-2-amine], the pIC50 is 6.46 in data set [2] (setting [8]); 6.33 in data set [3] (setting [9]); 6.39 against CDK2/CycE; 6.07 in [4] (setting [10]); 6.11 in [5] (Homo sapiens, HeLa); 8.22 on CDK9/CycT1. For the same compound, the pIC50 in data set [6] (Homo sapiens, HeLa) was 6.43; in data set [7] (setting [11]), 6.43.

As for `CCOC(=O)N=S(C)(=O)Cc1cccc(Nc2ncnc(-c3cccc4c3OCCC4)n2)c1` (racemic) [Example 29, (rac)-Ethyl [(3-{[4-(3,4-dihydro-2H-chromen-8-yl)-1,3,5-triazin-2-yl]amino}benzyl)(methyl)oxido-λ^6-sulfanylidene]carbamate], the pIC50 in data set [2] (setting [8]) was 6.14; in data set [3] (setting [9]), 6.02; against CDK2/CycE, 5.92; in data set [4] (setting [10]), 6.12; in data set [5] (Homo sapiens, HeLa) it was 6.12; at CDK9/CycT1, 7.89. The pIC50 in [6] (Homo sapiens, HeLa) was 6.29; in [7] (setting [11]) it was 6.27.

Regarding `CS(=N)(=O)Cc1cccc(Nc2ncnc(-c3ccc(F)cc3OCc3cccc(C#N)c3)n2)c1` (racemic) [Example 98, (rac)-3-({5-Fluoro-2-[4-({3-[(S-methylsulfonimidoyl)methyl]phenyl}amino)-1,3,5-triazin-2-yl]phenoxy}methyl)benzonitrile], the pIC50 in [2] (setting [8]) was 6.92; in data set [3] (setting [9]), 6.89; against CDK2/CycE, 6.74; in [4] (setting [10]), 6.82; in [5] (Homo sapiens, HeLa), 6.59; against CDK9/CycT1 it was 8.52. For the same compound, the pIC50 in [6] (Homo sapiens, HeLa) is 6.85; in data set [7] (setting [11]) it was 6.92.
